This note sets out measurements from patent US11161850B2, “Fused pyrazine derivatives as A2A / A2B inhibitors” (Incyte Corporation, priority 2018, dated 2021).

For orientation: EC50 means the concentration needed to bring the measured effect to its halfway point. The low end stands for an effect from little substance, the high end for a need for much substance.

The target of assay [1] is human adenosine A2B receptor (Homo sapiens (Human), UniProt P29275). As to the kind of experiment: Adenosine A2B Receptor Cyclic AMP GS Assay. The conditions noted are these: HEK-293 cells expressing human A2B, agonist NECA 12 nM; for EC50: A2B_cAMP_EC50 (nM); for pEC50: read-out: A2B_cAMP_EC50. The class given is cell-based. How it is done: Example B. Adenosine A2B Receptor Cyclic AMP GS Assay
human adenosine A2B receptor, sequence (P29275 whole entry): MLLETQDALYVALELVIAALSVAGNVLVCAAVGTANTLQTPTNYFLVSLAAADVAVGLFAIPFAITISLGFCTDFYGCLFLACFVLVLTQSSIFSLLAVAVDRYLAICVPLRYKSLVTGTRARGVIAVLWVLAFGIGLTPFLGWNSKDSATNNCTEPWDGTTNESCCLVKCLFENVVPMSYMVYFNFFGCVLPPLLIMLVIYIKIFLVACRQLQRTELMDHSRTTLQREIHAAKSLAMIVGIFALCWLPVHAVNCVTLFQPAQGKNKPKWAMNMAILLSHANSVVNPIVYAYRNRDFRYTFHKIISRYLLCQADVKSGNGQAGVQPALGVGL
Stably transfected HEK-293 cells expressing the human adenosine A2B receptor (Perkin Elmer) were maintained in MEM culture medium with 10% FBS and 100 μg/mL Geneticin (Life Technologies). 18 to 24 hours prior to assay, geneticin was removed from culture. The cisbio cAMP-GS Dynamic kit utilizing the FRET (Fluorescence Resonance Energy Transfer) technology was used to measure cAMP accumulation in the cells. Compounds of the present disclosure at an appropriate concentration were mixed with 10000 cells/well in white 96 well half area plates (Perkin Elmer) for 30 min at room temperature gently shaking. Agonist, NECA (R&D Technologies) at 12 nM was added to each well for 60 min at room temperature gently shaking. Detection reagents, d2-labeled cAMP (acceptor) and anti-cAMP cryptate (donor) were added to each well for 60 min at rt gently shaking. Plates were read on Pherastar (BMG Labtech), fluorescence ratio 665/620 was calculated and EC50 determination was performed by fitting the curve of percent of control versus the log of the compound concentration using GraphPad Prism.

Another assay addresses Adenosine A2A (Homo sapiens (Human), UniProt P29274). The assay is described as follows: A2A Tag-Lite HTRF assay. The class given is binding. The source says: Example C. A2A Tag-Lite® HTRF Assay
(In general: TR-FRET usually uses a lanthanide donor and a delayed reading to cut background.)

[2] abbreviates: Tag-Lite Adenosine A2A labeled cells, fluorescent ligand 12.5 nM, read-out: A2A_Ki.
[3] abbreviates: read-out: A2A_Ki, Tag-Lite Adenosine A2A labeled cells, fluorescent ligand 12.5 nM.

pEC50, pKi: −log10 of the molar value. Where two headings read alike, the source gives them in different places.

Adenosine A2A, sequence (P29274 whole entry): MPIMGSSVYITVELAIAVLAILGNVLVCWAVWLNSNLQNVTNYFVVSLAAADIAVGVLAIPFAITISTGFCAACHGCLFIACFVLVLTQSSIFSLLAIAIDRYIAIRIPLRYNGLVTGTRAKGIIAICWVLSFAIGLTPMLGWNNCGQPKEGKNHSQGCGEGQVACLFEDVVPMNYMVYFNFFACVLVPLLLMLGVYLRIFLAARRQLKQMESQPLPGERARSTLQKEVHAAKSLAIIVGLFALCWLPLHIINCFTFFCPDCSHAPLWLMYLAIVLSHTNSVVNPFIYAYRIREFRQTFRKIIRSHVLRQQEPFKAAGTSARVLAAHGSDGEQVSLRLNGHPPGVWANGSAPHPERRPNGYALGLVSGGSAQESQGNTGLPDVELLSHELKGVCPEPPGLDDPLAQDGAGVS

`CCc1ncoc1-c1c(-c2cccc(C#N)c2)nc(N)c2nc(Cc3ccccn3)nn12` [Example 43, 3-(8-Amino-5-(4-ethyloxazol-5-yl)-2-(pyridin-2-ylmethyl)-[1,2,4]triazolo[1,5-a]pyrazin-6-yl)benzonitrile] showed an EC50 in assay [1] of under 10 nM. Further, at Adenosine A2A (setting [2]), the pKi was over 8.00.
`N#Cc1cccc(-c2nc(N)c3nc(C(O)c4ccccc4F)nn3c2-c2ccncn2)c1` (single isomer, unassigned) [Example 56, 3-(8-Amino-2-((2-fluorophenyl)(hydroxy)methyl)-5-(pyrimidin-4-yl)-[1,2,4]triazolo[1,5-a]pyrazin-6-yl)benzonitrile]: the pEC50 in assay [1] was over 8.00. For the same compound, the pKi at Adenosine A2A (setting [3]) is over 8.00.
With `N#Cc1cccc(-c2nc(N)c3cc(C(=O)N4CCC4)nn3c2-c2ccncn2)c1` [Example 7, 3-(4-Amino-2-(azetidine-1-carbonyl)-7-(pyrimidin-4-yl)pyrazolo[1,5-a]pyrazin-6-yl)benzonitrile], the EC50 in assay [1] is under 10 nM. Moreover, the pKi at Adenosine A2A (setting [2]) is over 8.00.
The like results for `N#Cc1cccc(-c2cn3nc(Cc4ncccc4Nc4cnn(Cc5ccncc5)c4)nc3c(N)n2)c1F` [Example 120, 3-(8-Amino-2-((3-((1-(pyridin-4-ylmethyl)-1H-pyrazol-4-yl)amino)pyridin-2-yl)methyl)-[1,2,4]triazolo[1,5-a]pyrazin-6-yl)-2-fluorobenzonitrile] were, in that order, 10 to 100 nM and over 8.00.
For `Cc1ncoc1-c1c(-c2cccc(C#N)c2)nc(N)c2nc(C(N)c3c(F)cccc3F)nn12` (stereo not drawn) [Example 77, 3-(8-amino-2-(amino(2,6-difluorophenyl)methyl)-5-(4-methyloxazol-5-yl)-[1,2,4]triazolo[1,5-a]pyrazin-6-yl)benzonitrile], the EC50 in assay [1] is under 10 nM. Further, the pKi on Adenosine A2A (setting [2]) was over 8.00.
Compound `Cn1cc(-c2c(-c3cccc(C#N)c3F)nc(N)c3nc(Cc4ccccn4)nn23)ccc1=O` [Example 89, 3-(8-amino-5-(1-methyl-6-oxo-1,6-dihydropyridin-3-yl)-2-(pyridin-2-ylmethyl)-[1,2,4]triazolo[1,5-a]pyrazin-6-yl)-2-fluorobenzonitrile] showed an EC50 in assay [1] of 10 to 100 nM. Besides, at Adenosine A2A (setting [2]), the pKi is over 8.00.
The like results for `Cc1cccnc1COc1nc2c(N)nc(-c3cccc(C#N)c3)c(-c3ccncn3)n2n1` [Example 119, 3-(8-amino-2-((3-methylpyridin-2-yl)methoxy)-5-(pyrimidin-4-yl)-[1,2,4]triazolo[1,5-a]pyrazin-6-yl)benzonitrile] were, in that order, under 10 nM and over 8.00.
The like results for `Cn1nncc1-c1c(-c2cccc(C#N)c2)nc(N)c2cc(Cc3ccccn3)nn12` [Example 37, 3-(4-Amino-7-(1-methyl-1H-1,2,3-triazol-5-yl)-2-(pyridin-2-ylmethyl)pyrazolo[1,5-a]pyrazin-6-yl)benzonitrile] were, in that order, under 10 nM and over 8.00.
As to `Cc1ncoc1-c1c(-c2cccc(C#N)c2F)nc(N)c2nc(Cc3ccccn3)nn12` [Example 86, 3-(8-amino-5-(4-methyloxazol-5-yl)-2-(pyridin-2-ylmethyl)-[1,2,4]triazolo[1,5-a]pyrazin-6-yl)-2-fluorobenzonitrile], in assay [1], the EC50 is under 10 nM. Besides, at Adenosine A2A (setting [2]), the pKi is over 8.00.
With `N#Cc1cccc(-c2nc(N)c3cc(C(O)c4ccccc4F)nn3c2-c2ccncn2)c1` (racemic) [Example 23, 3-(4-Amino-2-((2-fluorophenyl)(hydroxy)methyl)-7-(pyrimidin-4-yl)pyrazolo[1,5-a]pyrazin-6-yl)benzonitrile], the EC50 in assay [1] was under 10 nM. Also, the pKi on Adenosine A2A (setting [2]) was over 8.00.
As to `CCn1nccc1-c1c(-c2cccc(C#N)c2)nc(N)c2nc(C(O)c3c(F)cccc3F)nn12` (single isomer, unassigned) [Example 93, 3-(8-amino-2-((2,6-difluorophenyl)(hydroxy)methyl)-5-(1-ethyl-1H-pyrazol-5-yl)-[1,2,4]triazolo[1,5-a]pyrazin-6-yl)benzonitrile], the pEC50 in assay [1] was over 8.00. Besides, the pKi on Adenosine A2A (setting [3]) is over 8.00.
The compound `N#Cc1cccc(-c2nc(N)c3nc(C(O)c4c(F)cccc4F)nn3c2-c2ccc3nncn3c2)c1` (racemic) [Example 104, 3-(5-([1,2,4]triazolo[4,3-a]pyridin-6-yl)-8-amino-2-((2,6-difluorophenyl)(hydroxy)methyl)-[1,2,4]triazolo[1,5-a]pyrazin-6-yl)benzonitrile] returned an EC50 in assay [1] of 10 to 100 nM. Moreover, the pKi at Adenosine A2A (setting [2]) is over 8.00.
The like results for `N#Cc1cccc(-c2nc(N)c3nc(Cc4c(F)cccc4CN[C@H]4CCNC4=O)nn3c2-c2ccncn2)c1` [Example 68, (S)-3-(8-amino-2-(2-fluoro-6-(((2-oxopyrrolidin-3-yl)amino)methyl)benzyl)-5-(pyrimidin-4-yl)-[1,2,4]triazolo[1,5-a]pyrazin-6-yl)benzonitrile] were, in that order, 10 to 100 nM and over 8.00.
With `N#Cc1cccc(-c2cn3nc(Cc4c(F)cccc4-c4cnn(Cc5ccccn5)c4)nc3c(N)n2)c1F` [Example 107, 3-(8-amino-2-(2-fluoro-6-(1-(pyridin-2-ylmethyl)-1H-pyrazol-4-yl)benzyl)-[1,2,4]triazolo[1,5-a]pyrazin-6-yl)-2-fluorobenzonitrile], in assay [1], the half-maximal effective concentration (EC50) was in the range of 10 to 100 nM. For the same compound, the pKi at Adenosine A2A (setting [2]) was over 8.00.
The like results for `Cc1cnccc1-c1c(-c2cccc(C#N)c2)nc(N)c2nc(Cc3ccccn3)nn12` [Example 44, 3-(8-Amino-5-(3-methylpyridin-4-yl)-2-(pyridin-2-ylmethyl)-[1,2,4]triazolo[1,5-a]pyrazin-6-yl)benzonitrile] were, in that order, under 10 nM and over 8.00.
`N#Cc1cccc(-c2nc(N)c3nc(Cc4ccccc4CN4CC[C@H](O)C4)nn3c2-c2ccncn2)c1` [Example 123, (S)-3-(8-Amino-2-(2-((3-hydroxypyrrolidin-1-yl)methyl)benzyl)-5-(pyrimidin-4-yl)-[1,2,4]triazolo[1,5-a]pyrazin-6-yl)benzonitrile] gave an EC50 in assay [1] of 10 to 100 nM. Moreover, the pKi at Adenosine A2A (setting [2]) is over 8.00.
The like results for `Cc1ncoc1-c1c(-c2cccc(C#N)c2)nc(N)c2nc(Cc3c(F)cccc3CN3CC[C@@](C)(C(=O)O)C3)nn12` [Example 76, (R)-1-(2-((8-amino-6-(3-cyanophenyl)-5-(4-methyloxazol-5-yl)-[1,2,4]triazolo[1,5-a]pyrazin-2-yl)methyl)-3-fluorobenzyl)-3-methylpyrrolidine-3-carboxylic Acid] were, in that order, 10 to 100 nM and over 8.00.
The like results for `N#Cc1cccc(-c2nc(N)c3nc(Cc4c(F)cccc4CN4CC(C#N)C4)nn3c2-c2ccncn2)c1` [Example 73, 1-(2-((8-amino-6-(3-cyanophenyl)-5-(pyrimidin-4-yl)-[1,2,4]triazolo[1,5-a]pyrazin-2-yl)methyl)-3-fluorobenzyl)azetidine-3-carbonitrile] were, in that order, under 10 nM and over 8.00.
In assay [1], `Cc1cnccc1-c1c(-c2cccc(C#N)c2)nc(N)c2nc(C(O)c3c(F)cccc3F)nn12` (single isomer, unassigned) [Example 108, 3-(8-amino-2-((2,6-difluorophenyl)(hydroxy)methyl)-5-(3-methylpyridin-4-yl)-[1,2,4]triazolo[1,5-a]pyrazin-6-yl)benzonitrile] registered an EC50 of under 10 nM. The compound further showed a pKi on Adenosine A2A of over 8.00.
For `N#Cc1cccc(-c2nc(N)c3cc(C(O)c4ccccc4F)nn3c2Br)c1` (stereo not drawn) [Example 22, 3-(4-Amino-7-bromo-2-((2-fluorophenyl)(hydroxy)methyl)pyrazolo[1,5-a]pyrazin-6-yl)benzonitrile], the EC50 in assay [1] fell in the range of 100 to 1000 nM. Further, the pKi at Adenosine A2A (setting [2]) is over 8.00.
The like results for `Cc1nc(C(O)C(F)F)c(-c2c(-c3cccc(C#N)c3)nc(N)c3cc(Cc4ccccn4)nn23)o1` (stereo not drawn) [Example 35, 3-(4-Amino-7-(4-(2,2-difluoro-1-hydroxyethyl)-2-methyloxazol-5-yl)-2-(pyridin-2-ylmethyl)pyrazolo[1,5-a]pyrazin-6-yl)benzonitrile] were, in that order, under 10 nM and over 8.00.
The like results for `N#Cc1cccc(-c2cn3nc(Cc4c(F)cccc4-c4cnn(CC(N)=O)c4)nc3c(N)n2)c1F` [Example 115, 2-(4-(2-((8-amino-6-(3-cyano-2-fluorophenyl)-[1,2,4]triazolo[1,5-a]pyrazin-2-yl)methyl)-3-fluorophenyl)-1H-pyrazol-1-yl)acetamide] were, in that order, under 10 nM and over 8.00.
The like results for `N#Cc1cccc(-c2nc(N)c3cc(Nc4ccccc4)nn3c2-c2ccncc2)c1` [Example 25, 3-(4-Amino-2-(phenylamino)-7-(pyridin-4-yl)pyrazolo[1,5-a]pyrazin-6-yl)benzonitrile] were, in that order, 10 to 100 nM and over 8.00.
As for `CN1CCC2(CN(Cc3cccc(F)c3Cc3nc4c(N)nc(-c5cccc(C#N)c5F)cn4n3)C2)C1=O` [Example 85, 3-(8-amino-2-(2-fluoro-6-((6-methyl-5-oxo-2,6-diazaspiro[3.4]octan-2-yl)methyl)benzyl)-[1,2,4]triazolo[1,5-a]pyrazin-6-yl)-2-fluorobenzonitrile], in assay [1], the EC50 was 10 to 100 nM. Further, the pKi on Adenosine A2A (setting [2]) is over 8.00.
